Experimental data: patent publication EP3181574A1, “HIGHLY SOLUBLE REBAUDIOSIDE D” (Purecircle USA, priority 2010, dated 2012)
Read-outs that look alike come from different tables or passages of the source. Values belong to the compound of their own block, whether it stands above or below them.

Key:
[1] = cited from earlier work
[2] = water, room temperature; cited from earlier work
[3] = Solubility of Rebaudioside D (crystalline vs amorphous) in water; type: physicochemical; conditions: for solubility: room temperature, % = grams soluble in 100 grams of solvent
Protocol: Hereinafter, unless specified otherwise the solubility of material is determined in RO (reverse osmosis) water at room temperature. Where the solubility is expressed as "%" it to be understood as number of grams of material soluble in 100 grams of solvent.
100g of crystalline Rebaudioside D, produced by PureCircle Sdn Bhd, with 98.1% purity (on anhydrous basis) was dissolved in 500 mL aqueous ethanol, containing 50% (vol.) ethanol. The solution was maintained at 50°C and dried using a YC-015 laboratory spray drier (Shanghai Pilotech Instrument & Equipment Co. Ltd., China) operating at 175°C inlet and 100°C outlet temperatures. […]

[4] = 50°C, solution crystallized after cooling down to room temperature (20°C)
[5] = 100°C, solution crystallized after cooling down to room temperature (20°C)

Compound: C=C1C[C@@]23CC[C@H]4[C@@](C)(CCC[C@@]4(C)C(=O)O[C@@H]4O[C@H](CO)[C@@H](O)[C@H](O)[C@H]4O)[C@@H]2CC[C@]1(O[C@@H]1O[C@H](CO)[C@@H](O)[C@H](O[C@@H]2O[C@H](CO)[C@@H](O)[C@H](O)[C@H]2O)[C@H]1O[C@@H]1O[C@H](CO)[C@@H](O)[C@H](O)[C@H]1O)C3 [Form 1 Hydrate, Rebaudioside A]
Rate of dissolution in H2O at 25°C ([1]; in 60 minutes): Very low (<0.2% in 60 minutes)

Compound: C=C1C[C@@]23CC[C@H]4[C@@](C)(CCC[C@@]4(C)C(=O)O[C@@H]4O[C@H](CO)[C@@H](O)[C@H](O)[C@H]4O)[C@@H]2CC[C@]1(O[C@@H]1O[C@H](CO)[C@@H](O)[C@H](O[C@@H]2O[C@H](CO)[C@@H](O)[C@H](O)[C@H]2O)[C@H]1O[C@@H]1O[C@H](CO)[C@@H](O)[C@H](O)[C@H]1O)C3 [Form 2 Anhydrous, Rebaudioside A]
Rate of dissolution in H2O at 25°C ([1]; in 5 minutes): Intermediate (<30% in 5 minutes)

Compound: C=C1C[C@@]23CC[C@H]4[C@@](C)(CCC[C@@]4(C)C(=O)O[C@@H]4O[C@H](CO)[C@@H](O)[C@H](O)[C@H]4O)[C@@H]2CC[C@]1(O[C@@H]1O[C@H](CO)[C@@H](O)[C@H](O[C@@H]2O[C@H](CO)[C@@H](O)[C@H](O)[C@H]2O)[C@H]1O[C@@H]1O[C@H](CO)[C@@H](O)[C@H](O)[C@H]1O)C3 [Form 3 Solvate, Rebaudioside A]
Rate of dissolution in H2O at 25°C ([1]; in 5 minutes): High (>30% in 5 minutes)

Compound: C=C1C[C@@]23CC[C@H]4[C@@](C)(CCC[C@@]4(C)C(=O)O[C@@H]4O[C@H](CO)[C@@H](O)[C@H](O)[C@H]4O)[C@@H]2CC[C@]1(O[C@@H]1O[C@H](CO)[C@@H](O)[C@H](O[C@@H]2O[C@H](CO)[C@@H](O)[C@H](O)[C@H]2O)[C@H]1O[C@@H]1O[C@H](CO)[C@@H](O)[C@H](O)[C@H]1O)C3 [Form 4 Amorphous, Rebaudioside A]
Rate of dissolution in H2O at 25°C ([1]; in 5 minutes): High (>35% in 5 minutes)

Compound: C=C1C[C@@]23CC[C@H]4[C@@](C)(CCC[C@@]4(C)C(=O)O[C@@H]4O[C@H](CO)[C@@H](O)[C@H](O)[C@H]4O)[C@@H]2CC[C@]1(O[C@@H]1O[C@H](CO)[C@@H](O)[C@H](O[C@@H]2O[C@H](CO)[C@@H](O)[C@H](O)[C@H]2O)[C@H]1O[C@@H]1O[C@H](CO)[C@@H](O)[C@H](O)[C@H]1O)C3 [Rebaudioside A]
thermodynamic equilibrium solubility [2]: 0.8%

solubility when heat is applied ([3]; water, heated, upon cooling to room temperature crystallizes back out from the solution): up to 0.5% | solubility ([3]; water): 0.05%
Compound: C=C1C[C@@]23CC[C@H]4[C@@](C)(CCC[C@@]4(C)C(=O)O[C@@H]4O[C@H](CO)[C@@H](O)[C@H](O)[C@H]4O[C@@H]4O[C@H](CO)[C@@H](O)[C@H](O)[C@H]4O)[C@@H]2CC[C@]1(O[C@@H]1O[C@H](CO)[C@@H](O)[C@H](O[C@@H]2O[C@H](CO)[C@@H](O)[C@H](O)[C@H]2O)[C@H]1O[C@@H]1O[C@H](CO)[C@@H](O)[C@H](O)[C@H]1O)C3 [Rebaudioside D]

Solubility, % (in water) ([3]; 20°C): 0.1% | Solubility, % (in water) [3, 4]: 0.5% | Solubility, % (in water) [3, 5]: 1.1% | solubility ([3]; water): 0.2%
Compound: C=C1C[C@@]23CC[C@H]4[C@@](C)(CCC[C@@]4(C)C(=O)O[C@@H]4O[C@H](CO)[C@@H](O)[C@H](O)[C@H]4O[C@@H]4O[C@H](CO)[C@@H](O)[C@H](O)[C@H]4O)[C@@H]2CC[C@]1(O[C@@H]1O[C@H](CO)[C@@H](O)[C@H](O[C@@H]2O[C@H](CO)[C@@H](O)[C@H](O)[C@H]2O)[C@H]1O[C@@H]1O[C@H](CO)[C@@H](O)[C@H](O)[C@H]1O)C3 [amorphous Reb D, Rebaudioside D]

Solubility, % (in water) ([3]; 20°C): 0.05% | Solubility, % (in water) [3, 4]: 0.2% | Solubility, % (in water) [3, 5]: 0.5% | solubility ([3]; water): 0.05%
Compound: C=C1C[C@@]23CC[C@H]4[C@@](C)(CCC[C@@]4(C)C(=O)O[C@@H]4O[C@H](CO)[C@@H](O)[C@H](O)[C@H]4O[C@@H]4O[C@H](CO)[C@@H](O)[C@H](O)[C@H]4O)[C@@H]2CC[C@]1(O[C@@H]1O[C@H](CO)[C@@H](O)[C@H](O[C@@H]2O[C@H](CO)[C@@H](O)[C@H](O)[C@H]2O)[C@H]1O[C@@H]1O[C@H](CO)[C@@H](O)[C@H](O)[C@H]1O)C3 [crystalline Rebaudioside D, Rebaudioside D]
